48 compounds from ChEMBL document CHEMBL5442379, “ASAP - SARS-CoV-2 nsp3 macrodomain single point” (2024) can be followed below.

The target of the assay is Replicase polyprotein 1ab (Severe acute respiratory syndrome coronavirus 2) (UniProt P0DTD1).

Description: Functional biochemical assay to identify treatments for viral infectious disease that targets SARS-COV-2 nsp3 macrodomain, whereby the mechanism of action displaces an ADP-Ribose modified peptide from the binding site. Utilizing a time-resolved fluorescence method to measure binding by reading the emitted fluorescence intensity in two wavelengths.

As usually defined, the inhibition is the drop in the measured response relative to a control, in per cent. Turning to `NCC(F)(F)CNC(=O)c1ccc(NC(=O)Nc2ccccc2)cc1`, the inhibition is -0.965% (Concentration 49.75 uM, Number of replicates 2.0, Standard deviation 4.8 %) and -1.17% (Concentration 99.5 uM, Number of replicates 2.0, Standard deviation 1.089 %).
For the compound `COc1cc(CNc2cnc3[nH]ncc3c2)ccc1Cl`, the inhibition (Concentration 50.0 uM, Number of replicates 2.0, Standard deviation 4.023 %) is -2.79%.
On to `CC(C)[C@H]1CN(c2ncnc3[nH]ccc23)[C@H]1C(C)C`, for which the inhibition was 0.348% (Concentration 49.75 uM, Number of replicates 2.0, Standard deviation 1.709 %) and -2.2% (Concentration 99.5 uM, Number of replicates 2.0, Standard deviation 1.351 %).
Consider `FC(F)(F)c1nnc2n1CCN(c1ncnc3[nH]ccc13)C2`, for which the inhibition (Concentration 49.75 uM, Number of replicates 2.0, Standard deviation 1.459 %) is -1.97% and the inhibition (Concentration 99.5 uM, Number of replicates 2.0, Standard deviation 0.538 %) was -1%.
`O=C(c1c[nH]c(=O)cn1)N1CCC(c2ccn3ncc(C(=O)N4CCCCC4)c3c2)CC1`: the inhibition (Concentration 99.5 uM, Number of replicates 2.0, Standard deviation 1.433 %) is 45.8%.
As for `O=C(Nc1ccccc1)Nc1ccc(C(=O)Nc2cnnc(Cl)c2)cc1`, the inhibition was -1.72% (Concentration 49.75 uM, Number of replicates 2.0, Standard deviation 1.096 %) and -0.19% (Concentration 99.5 uM, Number of replicates 2.0, Standard deviation 2.694 %).
Take `CC(C)[C@H]1N(c2ncnc3[nH]ccc23)CC12CCOCC2`: the inhibition runs as follows: (Concentration 49.75 uM, Number of replicates 2.0, Standard deviation 0.024 %) 27.6%; (Concentration 99.5 uM, Number of replicates 2.0, Standard deviation 0.45 %) 48%.
Turning to `O=S(=O)(Nc1ncccn1)c1ccc2oc3ccccc3c2c1`, under “Concentration 50.0 uM, Number of replicates 2.0, Standard deviation 5.51 %”, the inhibition is -3%.
With `CN(Cc1nccn1Cc1ccccc1)c1ncnc2[nH]ccc12`, the inhibition (Concentration 50.0 uM, Number of replicates 2.0, Standard deviation 2.394 %) is -7.22% and the inhibition (Concentration 100.0 uM, Number of replicates 2.0, Standard deviation 1.584 %) was -8.82%.
Consider `NC(=O)c1ncccc1C(=O)N1CCC(c2ccn3ncc(C(=O)N4CCCCC4)c3c2)CC1`, for which the inhibition was found to be 20% (Concentration 49.75 uM, Number of replicates 2.0, Standard deviation 4.804 %) and 36% (Concentration 99.5 uM, Number of replicates 2.0, Standard deviation 1.17 %).
For `O=C(CNc1ncnc2[nH]ccc12)N1CCc2ccccc21`, the inhibition (Concentration 50.0 uM, Number of replicates 2.0, Standard deviation 7.793 %) was found to be 1.19%.
As for `Cc1n[nH]cc1CN(C)C(=O)c1ccc(NC(=O)Nc2ccccc2)cc1`, the inhibition was -3.77% (Concentration 49.75 uM, Number of replicates 2.0, Standard deviation 4.474 %) and -0.031% (Concentration 99.5 uM, Number of replicates 2.0, Standard deviation 2.774 %).
As for `Cn1nc(NC(=O)c2cc(-c3ccco3)[nH]n2)c2nccnc21`, under “Concentration 50.0 uM, Number of replicates 2.0, Standard deviation 0.879 %”, the inhibition is -5.4%.
In the case of `O=C(c1ccccc1)N1CCC(c2ccn3ncc(C(=O)N4CCc5nc[nH]c5C4)c3c2)CC1`, the inhibition was determined as 11.2% (Concentration 49.75 uM, Number of replicates 2.0, Standard deviation 2.532 %) and 20.3% (Concentration 99.5 uM, Number of replicates 2.0, Standard deviation 2.098 %).
Take `Cn1nc(NC(=O)c2cc3nccn3c(=O)[nH]2)c2nccnc21`: the inhibition (Concentration 50.0 uM, Number of replicates 2.0, Standard deviation 4.143 %) was -1.91%.
As for `CN(CCOc1ccccc1)c1ncnc2[nH]ccc12`, the inhibition (Concentration 50.0 uM, Number of replicates 2.0, Standard deviation 4.668 %) is -2.26%.
On to `CC(C)OCCNC(=O)c1cc2c(=O)n3ccccc3nc2n1C`, for which, under “Concentration 50.0 uM, Number of replicates 2.0, Standard deviation 4.259 %”, the inhibition was determined as 14%.
For `O=C(Cc1n[nH]c2c1CCCC2)Nc1cnc2[nH]ncc2c1`, the inhibition (Concentration 50.0 uM, Number of replicates 2.0, Standard deviation 2.447 %) is -1.26%.
Take `Cc1nc(NC(=O)Cn2cnc3ccccc3c2=O)c2cc[nH]c2n1`: the inhibition reads like this: (Concentration 49.75 uM, Number of replicates 2.0, Standard deviation 4.18 %) -4.07%; (Concentration 99.5 uM, Number of replicates 2.0, Standard deviation 1.131 %) -4.89%.
With `O=C(O)c1cscc1C(=O)N1CCC(c2ccn3ncc(C(=O)N4CCCCC4)c3c2)CC1`, the inhibition reads like this: (Concentration 50.0 uM, Number of replicates 2.0, Standard deviation 2.729 %) 47.7%; (Concentration 100.0 uM, Number of replicates 2.0, Standard deviation 0.311 %) 66.7%.
For `O=C(N[C@@H]1CCCNC1=O)c1cnn2ccc(C3CCN(C(=O)c4ccccc4)CC3)cc12`, the inhibition is -3.16% (Concentration 49.75 uM, Number of replicates 2.0, Standard deviation 2.776 %) and -4.87% (Concentration 99.5 uM, Number of replicates 2.0, Standard deviation 2.396 %).
In the case of `O=C(Nc1ccc(O)cc1)Nc1ccc(Oc2ccccc2)cc1`, for the setting “Concentration 50.0 uM, Number of replicates 2.0, Standard deviation 2.274 %”, the inhibition is -3.31%.
For the compound `O=S1(=O)CCC[C@@H](CNc2ncnc3n[nH]cc23)C1`, the inhibition (Concentration 50.0 uM, Number of replicates 2.0, Standard deviation 5.989 %) was 4.59%.
Regarding `O=C(O)c1ccc(C(=O)N2CCC(c3ccn4ncc(C(=O)N5CCCCC5)c4c3)CC2)o1`, the inhibition (Concentration 49.75 uM, Number of replicates 2.0, Standard deviation 3.483 %) was 40.5% and the inhibition (Concentration 99.5 uM, Number of replicates 2.0, Standard deviation 5.512 %) worked out at 58.1%.
For `O=C(NCc1cc2n(n1)CCCC2)c1cc2cncnc2[nH]1`, under “Concentration 50.0 uM, Number of replicates 4.0, Standard deviation 10.451 %”, the inhibition worked out at 4.17%.
On to `O=C1CC[C@H](COC(=O)c2ncnc3[nH]ccc23)CCN1`, for which, for the setting “Concentration 50.0 uM, Number of replicates 2.0, Standard deviation 3.465 %”, the inhibition was -7.87%.
Regarding `Cc1c[nH]nc1C(=O)N1CCC(c2ccn3ncc(C(=O)N4CCCCC4)c3c2)CC1`, the inhibition (Concentration 49.75 uM, Number of replicates 2.0, Standard deviation 6.018 %) is 8.47% and the inhibition (Concentration 99.5 uM, Number of replicates 2.0, Standard deviation 4.753 %) turned out to be 27.4%.
On to `O=C(CCN(Cc1cccc(Cl)c1)C(=O)[C@@H]1CC1(F)F)N1CCNCC1`, for which the inhibition (Concentration 49.75 uM, Number of replicates 2.0, Standard deviation 3.095 %) is -2.07% and the inhibition (Concentration 99.5 uM, Number of replicates 2.0, Standard deviation 1.648 %) was -3.76%.
With `Cn1cc([C@@H](Nc2ncnc3[nH]ccc23)c2ccccc2)cn1`, the inhibition (Concentration 49.75 uM, Number of replicates 2.0, Standard deviation 1.638 %) stood at 20% and the inhibition (Concentration 99.5 uM, Number of replicates 2.0, Standard deviation 1.226 %) worked out at 39.3%.
Take `O=C(Nc1cnc2[nH]ncc2c1)c1noc2c1CCCC2`: the inhibition (Concentration 50.0 uM, Number of replicates 2.0, Standard deviation 0.458 %) is -1.4%.
With `O=C(CCN(Cc1cccc(Cl)c1)C(=O)[C@H]1C[C@H](O)C1)N1CCNCC1`, the inhibition is -2.13% (Concentration 49.75 uM, Number of replicates 2.0, Standard deviation 2.648 %) and -3.77% (Concentration 99.5 uM, Number of replicates 2.0, Standard deviation 5.781 %).
In the case of `O=C1NC[C@@H](C(=O)N(CCC(=O)N2CCNCC2)Cc2cccc(Cl)c2)O1`, the inhibition turned out to be 0.125% (Concentration 49.75 uM, Number of replicates 2.0, Standard deviation 2.173 %) and 5.24% (Concentration 99.5 uM, Number of replicates 2.0, Standard deviation 10.437 %).
For the compound `Cc1noc([C@@H]2CCCN(c3ncnc4[nH]ccc34)C2)n1`, for the setting “Concentration 50.0 uM, Number of replicates 2.0, Standard deviation 1.725 %”, the inhibition worked out at 1.92%.
With `O=S(=O)(NC[C@H]1CCOC1)c1cn2c(n1)CCCC2`, the inhibition (Concentration 50.0 uM, Number of replicates 2.0, Standard deviation 7.062 %) was -3.2%.
For `Cc1nn(Cc2ccccc2)c(C)c1CNc1ncnc2[nH]ncc12`, the inhibition (Concentration 50.0 uM, Number of replicates 2.0, Standard deviation 2.858 %) is -1.75%.
On to `c1nc(N2CC[C@@H](n3cncn3)C2)c2cc[nH]c2n1`, for which the inhibition (Concentration 50.0 uM, Number of replicates 2.0, Standard deviation 1.464 %) was -1.54%.
For `c1ccc2c(-c3c[nH]c4ncccc34)n[nH]c2c1`, the inhibition (Concentration 50.0 uM, Number of replicates 2.0, Standard deviation 4.4 %) is -7.25%.
As for `Cn1cc([C@H]2CCCCN2c2ncnc3[nH]ccc23)cn1`, the inhibition reads like this: (Concentration 49.75 uM, Number of replicates 2.0, Standard deviation 3.479 %) 6.39%; (Concentration 99.5 uM, Number of replicates 2.0, Standard deviation 0.865 %) 8.32%.
Take `c1nc(-c2nc(-c3cc(C4CC4)[nH]n3)no2)c2cc[nH]c2n1`: the inhibition was -4.8% (Concentration 50.0 uM, Number of replicates 2.0, Standard deviation 1.585 %); -2.81% (Concentration 50.0 uM, Number of replicates 2.0, Standard deviation 2.643 %); -2.45% (Concentration 100.0 uM, Number of replicates 2.0, Standard deviation […]).
Regarding `COc1cc(Nc2ncnc3[nH]ccc23)ccc1NC(C)=O`, the inhibition (Concentration 50.0 uM, Number of replicates 2.0, Standard deviation 12.002 %) was -7.76%.
As for `CN(C[C@H]1CCCN1)C(=O)c1cnn2ccc(C3CCN(C(=O)c4ccccc4)CC3)cc12`, the inhibition is -7.47% (Concentration 49.75 uM, Number of replicates 2.0, Standard deviation 0.33 %) and -6.59% (Concentration 99.5 uM, Number of replicates 2.0, Standard deviation 2.559 %).
Regarding `Cc1nn(C)c(C)c1[C@H]1COCCN1c1ncnc2[nH]ccc12`, the inhibition (Concentration 49.75 uM, Number of replicates 2.0, Standard deviation 4.821 %) was -0.137% and the inhibition (Concentration 99.5 uM, Number of replicates 2.0, Standard deviation 1.988 %) was -0.128%.
As to `CC(C)(C[C@@H]1CCCN(c2ncnc3[nH]ccc23)C1)C(N)=O`, under “Concentration 50.0 uM, Number of replicates 2.0, Standard deviation 4.235 %”, the inhibition is -1.59%.
As for `CC(C)[C@@H](Nc1ncnc2[nH]ccc12)C(=O)N(C)Cc1nnc2n1CCC2`, the inhibition runs as follows: (Concentration 49.75 uM, Number of replicates 2.0, Standard deviation 4.689 %) -8.89%; (Concentration 99.5 uM, Number of replicates 2.0, Standard deviation 1.151 %) -6.14%.
On to `C[C@@H](O)[C@@H]1CN(C(=O)c2ncnc3[nH]ccc23)CCO1`, for which, for the setting “Concentration 50.0 uM, Number of replicates 2.0, Standard deviation 0.15 %”, the inhibition was -3.13%.
As to `CC(C)[C@@H](CCN(C)C(=O)C1CCc2ccccc2CC1)Nc1ncnc2[nH]ccc12`, the inhibition (Concentration 49.75 uM, Number of replicates 2.0, Standard deviation 5.252 %) was -5.62%.
For `c1ccc2sc(CNc3ncnc4[nH]ccc34)nc2c1`, the inhibition (Concentration 50.0 uM, Number of replicates 2.0, Standard deviation 5.906 %) is -0.671%.
In the case of `CC(C)[C@@H](CCN(C)C(=O)c1cc2c(s1)CC[C@H](C)C2)Nc1ncnc2[nH]ccc12`, the inhibition (Concentration 49.75 uM, Number of replicates 2.0, Standard deviation 6.617 %) is -9.68%.
